# Data taken from ChEMBL document CHEMBL2401682, “Evaluation of Jatropha isabelli natural products and their synthetic analogs as potential antimalarial therapeutic agents” (Eur J Med Chem, 2013).
# Tested on: HEK293
# Experiment: Cytotoxicity against HEK293 cells after 72 hrs by celltiter-glo assay
# Type: cell-based
# Details: Homo sapiens, HEK293, 72 h
row,Compound,EC50
1,C/C1=C/[C@]23O[C@H]2[C@H](C)C=C3C(=O)[C@@](C)(O)C(=O)CC(C)(C)/C=C/C1=O,26 µM
2,C=C1/C=C/C(C)(C)CC2=C(C)C(=O)[C@]3(C[C@@H](C)C=C3/C=C\1C)O2,26 µM
3,CC1=C2CC(C)(C)/C=C/C/C(C)=C\C3=C[C@H](C)C[C@]3(O2)C1=O,26 µM
4,C/C1=C/C2=C[C@H](C)C[C@@]23O[C@]2(CC(C)(C)C[C@@H]2[C@@]1(O)C(F)(F)F)[C@@H](C)C3=O,26 µM
5,CC1=C2CC(C)(C)/C=C/C(=O)/C(C)=C\C3=C[C@H](C)C[C@]3(O2)[C@@]1(O)C(F)(F)F,26 µM
6,CC1=C2CC(C)(C)/C=C/C(=O)/C(C)=C\C3=C[C@H](C)C[C@]3(O2)[C@]1(C)O,26 µM
7,CC1=C2CC(C)(C)[C@@H](C)CC(=O)/C(C)=C\C3=C[C@H](C)C[C@]3(O2)C1=O,26 µM
8,CC1=C2CC(C)(C)/C=C/C(=O)/C(C)=C\C3=C[C@H](C)C[C@]3(O2)[C@@]1(O)C#N,26 µM
9,C/C1=C/C2=C[C@H](C)C[C@@]23O[C@]2(CC(C)(C)C[C@@H]2[C@@]1(O)C#N)[C@@H](C)C3=O,8.66 µM
10,CC1=C2CC(C)(C)[C@@H]3C=C(OC3)/C(C)=C\C3=C[C@H](C)C[C@]3(O2)C1=O,26 µM

# Tested on: BJ
# Experiment: Cytotoxicity against human BJ cells after 72 hrs by celltiter-glo assay
# Type: cell-based
# Details: not given
row,Compound,EC50
1,C/C1=C/[C@]23O[C@H]2[C@H](C)C=C3C(=O)[C@@](C)(O)C(=O)CC(C)(C)/C=C/C1=O,26 µM
2,C=C1/C=C/C(C)(C)CC2=C(C)C(=O)[C@]3(C[C@@H](C)C=C3/C=C\1C)O2,26 µM
3,CC1=C2CC(C)(C)/C=C/C/C(C)=C\C3=C[C@H](C)C[C@]3(O2)C1=O,26 µM
4,C/C1=C/C2=C[C@H](C)C[C@@]23O[C@]2(CC(C)(C)C[C@@H]2[C@@]1(O)C(F)(F)F)[C@@H](C)C3=O,26 µM
5,CC1=C2CC(C)(C)/C=C/C(=O)/C(C)=C\C3=C[C@H](C)C[C@]3(O2)[C@@]1(O)C(F)(F)F,26 µM
6,CC1=C2CC(C)(C)/C=C/C(=O)/C(C)=C\C3=C[C@H](C)C[C@]3(O2)[C@]1(C)O,26 µM
7,CC1=C2CC(C)(C)[C@@H](C)CC(=O)/C(C)=C\C3=C[C@H](C)C[C@]3(O2)C1=O,26 µM
8,CC1=C2CC(C)(C)/C=C/C(=O)/C(C)=C\C3=C[C@H](C)C[C@]3(O2)[C@@]1(O)C#N,26 µM
9,C/C1=C/C2=C[C@H](C)C[C@@]23O[C@]2(CC(C)(C)C[C@@H]2[C@@]1(O)C#N)[C@@H](C)C3=O,26 µM
10,CC1=C2CC(C)(C)[C@@H]3C=C(OC3)/C(C)=C\C3=C[C@H](C)C[C@]3(O2)C1=O,26 µM

# Tested on: HepG2
# Experiment: Cytotoxicity against human HepG2 cells after 72 hrs by celltiter-glo assay
# Type: cell-based
# Details: HepG2, 72 h
row,Compound,EC50
1,C/C1=C/[C@]23O[C@H]2[C@H](C)C=C3C(=O)[C@@](C)(O)C(=O)CC(C)(C)/C=C/C1=O,26 µM
2,C=C1/C=C/C(C)(C)CC2=C(C)C(=O)[C@]3(C[C@@H](C)C=C3/C=C\1C)O2,26 µM
3,CC1=C2CC(C)(C)/C=C/C/C(C)=C\C3=C[C@H](C)C[C@]3(O2)C1=O,26 µM
4,C/C1=C/C2=C[C@H](C)C[C@@]23O[C@]2(CC(C)(C)C[C@@H]2[C@@]1(O)C(F)(F)F)[C@@H](C)C3=O,26 µM
5,CC1=C2CC(C)(C)/C=C/C(=O)/C(C)=C\C3=C[C@H](C)C[C@]3(O2)[C@@]1(O)C(F)(F)F,26 µM
6,CC1=C2CC(C)(C)/C=C/C(=O)/C(C)=C\C3=C[C@H](C)C[C@]3(O2)[C@]1(C)O,26 µM
7,CC1=C2CC(C)(C)[C@@H](C)CC(=O)/C(C)=C\C3=C[C@H](C)C[C@]3(O2)C1=O,26 µM
8,CC1=C2CC(C)(C)/C=C/C(=O)/C(C)=C\C3=C[C@H](C)C[C@]3(O2)[C@@]1(O)C#N,26 µM
9,C/C1=C/C2=C[C@H](C)C[C@@]23O[C@]2(CC(C)(C)C[C@@H]2[C@@]1(O)C#N)[C@@H](C)C3=O,26 µM
10,CC1=C2CC(C)(C)[C@@H]3C=C(OC3)/C(C)=C\C3=C[C@H](C)C[C@]3(O2)C1=O,26 µM

# Tested on: Plasmodium falciparum
# Experiment: Antimalarial activity against chloroquine-sensitive Plasmodium falciparum 3D7 infected in O-positive erythrocytes assessed as parasite growth inhibition after 72 hrs by DNA staining-based assay
# Type: functional, organism-based
# Details: 3D7, 72 h
row,Compound,EC50
1,C/C1=C/[C@]23O[C@H]2[C@H](C)C=C3C(=O)[C@@](C)(O)C(=O)CC(C)(C)/C=C/C1=O,15 µM
2,C=C1/C=C/C(C)(C)CC2=C(C)C(=O)[C@]3(C[C@@H](C)C=C3/C=C\1C)O2,15 µM
3,CC1=C2CC(C)(C)/C=C/C/C(C)=C\C3=C[C@H](C)C[C@]3(O2)C1=O,15 µM
4,C/C1=C/C2=C[C@H](C)C[C@@]23O[C@]2(CC(C)(C)C[C@@H]2[C@@]1(O)C(F)(F)F)[C@@H](C)C3=O,15 µM
5,CC1=C2CC(C)(C)/C=C/C(=O)/C(C)=C\C3=C[C@H](C)C[C@]3(O2)[C@@]1(O)C(F)(F)F,15 µM
6,CC1=C2CC(C)(C)/C=C/C(=O)/C(C)=C\C3=C[C@H](C)C[C@]3(O2)[C@]1(C)O,0.624 µM
7,CC1=C2CC(C)(C)[C@@H](C)CC(=O)/C(C)=C\C3=C[C@H](C)C[C@]3(O2)C1=O,15 µM
8,CC1=C2CC(C)(C)/C=C/C(=O)/C(C)=C\C3=C[C@H](C)C[C@]3(O2)[C@@]1(O)C#N,15 µM
9,C/C1=C/C2=C[C@H](C)C[C@@]23O[C@]2(CC(C)(C)C[C@@H]2[C@@]1(O)C#N)[C@@H](C)C3=O,15 µM
10,CC1=C2CC(C)(C)[C@@H]3C=C(OC3)/C(C)=C\C3=C[C@H](C)C[C@]3(O2)C1=O,15 µM

# Tested on: Plasmodium falciparum
# Experiment: Antimalarial activity against chloroquine and pyrimethamine-resistant Plasmodium falciparum K1 infected in O-positive erythrocytes assessed as parasite growth inhibition after 72 hrs by DNA staining-based assay
# Type: functional, organism-based
# Details: K1, 72 h
row,Compound,EC50
1,C/C1=C/[C@]23O[C@H]2[C@H](C)C=C3C(=O)[C@@](C)(O)C(=O)CC(C)(C)/C=C/C1=O,15 µM
2,C=C1/C=C/C(C)(C)CC2=C(C)C(=O)[C@]3(C[C@@H](C)C=C3/C=C\1C)O2,15 µM
3,CC1=C2CC(C)(C)/C=C/C/C(C)=C\C3=C[C@H](C)C[C@]3(O2)C1=O,15 µM
4,C/C1=C/C2=C[C@H](C)C[C@@]23O[C@]2(CC(C)(C)C[C@@H]2[C@@]1(O)C(F)(F)F)[C@@H](C)C3=O,15 µM
5,CC1=C2CC(C)(C)/C=C/C(=O)/C(C)=C\C3=C[C@H](C)C[C@]3(O2)[C@@]1(O)C(F)(F)F,15 µM
6,CC1=C2CC(C)(C)/C=C/C(=O)/C(C)=C\C3=C[C@H](C)C[C@]3(O2)[C@]1(C)O,15 µM
7,CC1=C2CC(C)(C)[C@@H](C)CC(=O)/C(C)=C\C3=C[C@H](C)C[C@]3(O2)C1=O,15 µM
8,CC1=C2CC(C)(C)/C=C/C(=O)/C(C)=C\C3=C[C@H](C)C[C@]3(O2)[C@@]1(O)C#N,15 µM
9,C/C1=C/C2=C[C@H](C)C[C@@]23O[C@]2(CC(C)(C)C[C@@H]2[C@@]1(O)C#N)[C@@H](C)C3=O,15 µM
10,CC1=C2CC(C)(C)[C@@H]3C=C(OC3)/C(C)=C\C3=C[C@H](C)C[C@]3(O2)C1=O,15 µM

# Tested on: Raji
# Experiment: Cytotoxicity against human Raji cells after 72 hrs by celltiter-glo assay
# Type: cell-based
# Details: not given
row,Compound,EC50
1,C/C1=C/[C@]23O[C@H]2[C@H](C)C=C3C(=O)[C@@](C)(O)C(=O)CC(C)(C)/C=C/C1=O,26 µM
2,C=C1/C=C/C(C)(C)CC2=C(C)C(=O)[C@]3(C[C@@H](C)C=C3/C=C\1C)O2,26 µM
3,CC1=C2CC(C)(C)/C=C/C/C(C)=C\C3=C[C@H](C)C[C@]3(O2)C1=O,26 µM
4,C/C1=C/C2=C[C@H](C)C[C@@]23O[C@]2(CC(C)(C)C[C@@H]2[C@@]1(O)C(F)(F)F)[C@@H](C)C3=O,26 µM
5,CC1=C2CC(C)(C)/C=C/C(=O)/C(C)=C\C3=C[C@H](C)C[C@]3(O2)[C@@]1(O)C(F)(F)F,26 µM
6,CC1=C2CC(C)(C)/C=C/C(=O)/C(C)=C\C3=C[C@H](C)C[C@]3(O2)[C@]1(C)O,26 µM
7,CC1=C2CC(C)(C)[C@@H](C)CC(=O)/C(C)=C\C3=C[C@H](C)C[C@]3(O2)C1=O,26 µM
8,CC1=C2CC(C)(C)/C=C/C(=O)/C(C)=C\C3=C[C@H](C)C[C@]3(O2)[C@@]1(O)C#N,21.2 µM
9,C/C1=C/C2=C[C@H](C)C[C@@]23O[C@]2(CC(C)(C)C[C@@H]2[C@@]1(O)C#N)[C@@H](C)C3=O,26 µM
10,CC1=C2CC(C)(C)[C@@H]3C=C(OC3)/C(C)=C\C3=C[C@H](C)C[C@]3(O2)C1=O,26 µM
